Laboratory results published in ChEMBL document CHEMBL3124815, “Discovery of a selective kinase inhibitor (TAK-632) targeting pan-RAF inhibition: design, synthesis, and biological evaluation of C-7-substituted 1,3-benzothiazole derivatives” (J Med Chem, 2013).
pIC50: −log10 of the molar value.

Legend:
[1] = target: T1, Serine/threonine-protein kinase B-raf (Homo sapiens, UniProt P15056, V600E); test: Inhibition of BRAF V600E mutant in human HT-29 cells assessed as phosphorylation of MEK; type: cell-based
T1 sequence (P15056 2-766 V600E limits assumed): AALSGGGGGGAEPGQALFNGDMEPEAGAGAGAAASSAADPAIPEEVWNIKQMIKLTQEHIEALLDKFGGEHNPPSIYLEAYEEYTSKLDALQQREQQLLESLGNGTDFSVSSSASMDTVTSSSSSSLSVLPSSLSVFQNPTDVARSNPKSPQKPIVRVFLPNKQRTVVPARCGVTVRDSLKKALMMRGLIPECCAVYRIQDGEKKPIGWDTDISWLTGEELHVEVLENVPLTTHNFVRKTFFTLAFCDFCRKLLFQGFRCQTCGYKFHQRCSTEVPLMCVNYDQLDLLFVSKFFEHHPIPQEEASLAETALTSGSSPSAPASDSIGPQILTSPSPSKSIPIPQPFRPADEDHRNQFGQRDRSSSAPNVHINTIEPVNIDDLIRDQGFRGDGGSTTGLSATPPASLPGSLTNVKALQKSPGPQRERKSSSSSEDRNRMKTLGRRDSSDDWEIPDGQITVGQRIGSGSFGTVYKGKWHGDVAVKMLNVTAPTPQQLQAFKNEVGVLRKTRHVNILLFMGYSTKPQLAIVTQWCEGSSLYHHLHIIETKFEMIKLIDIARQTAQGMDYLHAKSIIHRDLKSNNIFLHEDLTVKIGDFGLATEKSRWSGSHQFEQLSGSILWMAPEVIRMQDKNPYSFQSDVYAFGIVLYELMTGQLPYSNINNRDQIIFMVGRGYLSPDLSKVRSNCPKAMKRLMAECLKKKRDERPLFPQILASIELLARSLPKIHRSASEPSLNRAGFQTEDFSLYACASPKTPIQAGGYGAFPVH

Homo sapiens = species: Homo sapiens; test: Selectivity factor, ratio of IC50 for VEGFR2 (unknown origin) to IC50 for N-terminal FLAG-tagged recombinant BRAF-V600E (unknown origin) expressed in baculovirus system
Mus musculus = test: AUC (0 to 8 hrs) in mouse at 10 mg/kg, po; type: ADME, organism-based, Blood; set-up: time < 8 hr, dose 10 mg/kg, route oral; details: in vivo
[2] = target: T2, Vascular endothelial growth factor receptor 2 (Homo sapiens, UniProt P35968); test: Inhibition of VEGFR2 (unknown origin) using biotinylated poly-GluTyr (4:1) as substrate pretreated for 5 mins before substrate addition measured after overnight incubation
T2 sequence (P35968 whole entry): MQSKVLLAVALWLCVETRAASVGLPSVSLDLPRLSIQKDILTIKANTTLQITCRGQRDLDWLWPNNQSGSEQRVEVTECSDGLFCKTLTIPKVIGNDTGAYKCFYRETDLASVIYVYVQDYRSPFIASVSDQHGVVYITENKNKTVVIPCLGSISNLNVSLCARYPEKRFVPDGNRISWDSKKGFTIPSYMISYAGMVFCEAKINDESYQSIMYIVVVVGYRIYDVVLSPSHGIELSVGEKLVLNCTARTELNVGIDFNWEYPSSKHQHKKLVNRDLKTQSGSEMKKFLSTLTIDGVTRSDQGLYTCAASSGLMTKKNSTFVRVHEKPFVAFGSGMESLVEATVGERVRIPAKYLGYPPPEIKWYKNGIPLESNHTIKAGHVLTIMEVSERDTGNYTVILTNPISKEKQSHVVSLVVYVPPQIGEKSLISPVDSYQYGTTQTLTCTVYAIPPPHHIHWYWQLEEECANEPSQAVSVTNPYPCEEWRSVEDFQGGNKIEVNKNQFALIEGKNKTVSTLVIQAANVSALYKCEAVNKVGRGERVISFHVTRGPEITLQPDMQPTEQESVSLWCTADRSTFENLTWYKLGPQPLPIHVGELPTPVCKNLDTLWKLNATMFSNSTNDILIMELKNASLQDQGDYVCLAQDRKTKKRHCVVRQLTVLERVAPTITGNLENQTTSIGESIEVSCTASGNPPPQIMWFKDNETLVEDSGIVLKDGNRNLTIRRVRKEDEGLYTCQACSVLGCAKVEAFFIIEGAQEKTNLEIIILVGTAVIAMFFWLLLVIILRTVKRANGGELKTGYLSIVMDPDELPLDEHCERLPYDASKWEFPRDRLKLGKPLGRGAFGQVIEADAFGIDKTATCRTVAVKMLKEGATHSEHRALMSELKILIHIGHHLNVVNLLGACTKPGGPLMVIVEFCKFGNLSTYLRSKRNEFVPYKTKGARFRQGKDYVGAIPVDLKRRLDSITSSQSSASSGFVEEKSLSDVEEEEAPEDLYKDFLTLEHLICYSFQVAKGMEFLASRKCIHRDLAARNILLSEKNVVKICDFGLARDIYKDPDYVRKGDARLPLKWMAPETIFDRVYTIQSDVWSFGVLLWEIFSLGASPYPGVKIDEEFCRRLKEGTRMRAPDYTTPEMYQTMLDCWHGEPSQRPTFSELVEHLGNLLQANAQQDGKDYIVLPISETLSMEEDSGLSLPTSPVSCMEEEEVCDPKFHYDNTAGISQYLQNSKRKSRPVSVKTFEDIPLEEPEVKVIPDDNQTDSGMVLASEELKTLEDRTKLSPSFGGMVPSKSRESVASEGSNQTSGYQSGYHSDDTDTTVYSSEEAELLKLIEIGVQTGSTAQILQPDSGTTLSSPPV

[3] = target: T1, Serine/threonine-protein kinase B-raf; test: Inhibition of N-terminal FLAG-tagged recombinant BRAF V600E mutant (unknown origin) expressed in baculovirus system preincubated for 10 mins before substrate addition measured after 20 mins by scintillation counting
[4] = target: T2, Vascular endothelial growth factor receptor 2; test: Inhibition of VEGFR2 (unknown origin)
[5] = target: T1, Serine/threonine-protein kinase B-raf; test: Inhibition of BRAF V600E mutant (unknown origin)

Row | pIC50 [4] | pIC50 [5] | SMILES | pIC50 [1] | Ratio IC50 (Homo sapiens) | AUC (Mus musculus) | pIC50 [2] | pIC50 [3]
1 |  |  | CC(C)(C#N)c1cccc(C(=O)Nc2cccc(Oc3ccc4nc(NC(=O)C5CC5)sc4c3C#N)c2)c1 | 7.47 | 5.8 | 149 ng·h/mL |  | 
2 |  |  | N#Cc1c(Oc2ccc(F)c(NC(=O)Nc3cccc(C(F)(F)F)c3)c2)ccc2nc(NC(=O)C3CC3)sc12 | 7.66 | 15 |  |  | 
3 |  |  | CC(C)(C#N)c1cccc(C(=O)Nc2cccc(Oc3ccc4nc(NC(=O)C5CC5)sc4c3C(=O)O)c2)c1 |  | 0.051 |  | 7.82 | 6.54
4 |  |  | N#Cc1c(Oc2cccc(NC(=O)Cc3ccccc3C(F)(F)F)c2)ccc2nc(NC(=O)C3CC3)sc12 | < 6.30 | 7.1 | 255 ng·h/mL |  | 
5 |  |  | CC(C)(C#N)c1cccc(C(=O)Nc2cccc(Oc3ccc4nc(NC(=O)C5CC5)sc4c3)c2)c1 |  | 0.56 |  |  | 
6 | 8.55 | 8.25 | N#CC1(c2cccc(C(=O)Nc3cc(Oc4ccc5nc(NC(=O)C6CC6)sc5n4)ccc3F)c2Cl)CC1 |  |  |  |  | 
7 |  |  | N#Cc1c(Oc2cccc(NC(=O)Cc3cccc(C(F)(F)F)c3)c2)ccc2nc(NC(=O)C3CC3)sc12 | 6.44 | 120 | 3780 ng·h/mL |  | 
8 |  |  | N#Cc1c(Oc2cccc(NC(=O)Nc3ccc(C(F)(F)F)cc3)c2)ccc2nc(NC(=O)C3CC3)sc12 | 6.96 | 18 | 431 ng·h/mL |  | 
9 |  |  | CC(C)(C#N)c1cccc(C(=O)Nc2cccc(Oc3ccc4nc(NC(=O)C5CC5)sc4c3[N+](=O)[O-])c2)c1 | 7.54 | 2.8 |  |  | 
10 |  |  | N#Cc1c(Oc2cccc(NC(=O)Nc3ccccc3C(F)(F)F)c2)ccc2nc(NC(=O)C3CC3)sc12 | < 6.30 | 6.3 | 58 ng·h/mL |  | 
11 |  |  | N#Cc1c(Oc2ccc(F)c(NC(=O)Nc3ccc(C(F)(F)F)cc3)c2)ccc2nc(NC(=O)C3CC3)sc12 | 7.09 | 25 | 158 ng·h/mL |  | 
12 |  |  | N#Cc1c(Oc2cccc(NC(=O)Cc3ccc(C(F)(F)F)cc3)c2)ccc2nc(NC(=O)C3CC3)sc12 | 6.49 | 20 | 123 ng·h/mL |  | 
13 |  |  | CC(C)(C#N)c1cccc(C(=O)Nc2cccc(Oc3ccc4nc(NC(=O)C5CC5)sc4c3CO)c2)c1 | 6.77 | 0.31 |  |  | 
14 |  |  | N#Cc1c(Oc2cccc(NC(=O)Nc3cccc(C(F)(F)F)c3)c2)ccc2nc(NC(=O)C3CC3)sc12 | 7.12 | 19 | 99 ng·h/mL | 6.46 | 7.74
15 |  |  | COC(=O)c1c(Oc2cccc(NC(=O)c3cccc(C(C)(C)C#N)c3)c2)ccc2nc(NC(=O)C3CC3)sc12 | 7.62 | 2.8 |  |  | 
